Where a name gives a salt, the structure may show the parent alone.

For one experiment, the target named is hNav1.7 (Homo sapiens (Human), UniProt Q15858). The experiment is described as follows: Tritiated compound binding to membranes from cells expressing hNav1.7 and the β1 subunit, competitive binding (LBA, Ex. 243A). The conditions noted are these: 100 pM [3H]compound, 18 h, room temperature; read-out: Nav1.7 (LBA) (Ex. 243A).
Sequence of hNav1.7 (Q15858 whole entry, looked up): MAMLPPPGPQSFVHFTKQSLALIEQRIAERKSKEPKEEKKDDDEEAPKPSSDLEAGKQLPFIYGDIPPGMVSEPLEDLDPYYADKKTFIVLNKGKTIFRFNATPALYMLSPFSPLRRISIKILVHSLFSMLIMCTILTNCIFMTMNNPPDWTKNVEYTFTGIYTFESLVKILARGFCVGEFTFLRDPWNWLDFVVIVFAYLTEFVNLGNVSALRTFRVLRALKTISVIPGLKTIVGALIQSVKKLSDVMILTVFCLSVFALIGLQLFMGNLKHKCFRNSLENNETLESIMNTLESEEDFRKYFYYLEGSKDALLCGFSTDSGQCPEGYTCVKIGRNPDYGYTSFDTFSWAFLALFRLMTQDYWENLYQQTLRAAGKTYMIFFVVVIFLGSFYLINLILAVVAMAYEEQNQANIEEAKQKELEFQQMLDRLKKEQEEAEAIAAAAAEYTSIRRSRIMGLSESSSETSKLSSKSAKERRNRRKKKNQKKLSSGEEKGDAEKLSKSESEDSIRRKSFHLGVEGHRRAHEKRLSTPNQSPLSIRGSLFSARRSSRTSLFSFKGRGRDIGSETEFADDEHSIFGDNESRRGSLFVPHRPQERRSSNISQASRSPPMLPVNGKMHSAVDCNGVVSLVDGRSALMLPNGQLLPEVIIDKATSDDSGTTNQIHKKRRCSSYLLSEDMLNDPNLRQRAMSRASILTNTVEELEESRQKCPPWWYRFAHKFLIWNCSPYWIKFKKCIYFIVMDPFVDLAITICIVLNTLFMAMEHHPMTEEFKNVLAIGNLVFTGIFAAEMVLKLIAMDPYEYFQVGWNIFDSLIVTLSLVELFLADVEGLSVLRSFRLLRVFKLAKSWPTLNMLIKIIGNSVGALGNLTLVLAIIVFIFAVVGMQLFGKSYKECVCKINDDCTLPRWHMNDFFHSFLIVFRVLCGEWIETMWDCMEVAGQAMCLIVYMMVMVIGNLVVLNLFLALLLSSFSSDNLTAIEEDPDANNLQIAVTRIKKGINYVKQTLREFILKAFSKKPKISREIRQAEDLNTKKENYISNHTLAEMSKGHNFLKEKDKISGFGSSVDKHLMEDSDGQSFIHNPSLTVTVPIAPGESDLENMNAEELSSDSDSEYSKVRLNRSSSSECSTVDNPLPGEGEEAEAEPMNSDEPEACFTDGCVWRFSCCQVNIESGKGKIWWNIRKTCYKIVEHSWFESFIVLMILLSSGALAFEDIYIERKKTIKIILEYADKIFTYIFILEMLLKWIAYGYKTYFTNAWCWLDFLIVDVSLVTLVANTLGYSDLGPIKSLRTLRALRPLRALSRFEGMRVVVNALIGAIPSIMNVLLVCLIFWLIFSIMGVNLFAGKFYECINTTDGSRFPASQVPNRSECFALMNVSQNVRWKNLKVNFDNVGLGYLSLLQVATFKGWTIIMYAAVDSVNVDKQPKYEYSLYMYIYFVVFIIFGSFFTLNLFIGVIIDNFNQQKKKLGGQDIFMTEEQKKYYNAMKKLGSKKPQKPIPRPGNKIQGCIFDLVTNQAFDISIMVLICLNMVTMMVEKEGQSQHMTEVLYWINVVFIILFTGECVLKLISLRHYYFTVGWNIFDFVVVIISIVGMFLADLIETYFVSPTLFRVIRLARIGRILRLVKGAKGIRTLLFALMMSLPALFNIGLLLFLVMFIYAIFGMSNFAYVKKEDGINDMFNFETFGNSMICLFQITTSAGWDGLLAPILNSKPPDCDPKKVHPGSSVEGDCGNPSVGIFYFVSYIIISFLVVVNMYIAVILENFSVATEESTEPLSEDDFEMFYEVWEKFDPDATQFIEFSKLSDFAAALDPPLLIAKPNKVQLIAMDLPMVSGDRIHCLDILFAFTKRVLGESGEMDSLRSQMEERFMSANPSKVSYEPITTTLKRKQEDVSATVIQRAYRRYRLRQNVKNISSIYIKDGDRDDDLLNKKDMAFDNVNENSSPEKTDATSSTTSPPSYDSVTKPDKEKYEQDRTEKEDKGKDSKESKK
Sequence of hNav1.7 (Q07699 whole entry partner, looked up): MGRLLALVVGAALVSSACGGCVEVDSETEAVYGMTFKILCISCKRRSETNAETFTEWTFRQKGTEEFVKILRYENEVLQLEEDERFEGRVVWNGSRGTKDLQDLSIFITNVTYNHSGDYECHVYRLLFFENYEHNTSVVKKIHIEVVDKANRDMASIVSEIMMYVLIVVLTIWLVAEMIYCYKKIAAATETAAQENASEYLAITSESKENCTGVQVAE
As to “5-chloro-4-(((1 S,2S)-2-(ethylamino)cyclohexyl)amino)-2-fluoro-N-(pyrimidin-4-yl)benzenesulfonamide [Example 22]”, the IC50 worked out at 95.1 nM. On to `CN(C)[C@H]1CCCC[C@@H]1Nc1cc(F)c(S(=O)(=O)Nc2ncc(Cl)s2)cc1Cl` [Example 26, 5-chloro-N-(5-chlorothiazol-2-yl)-4-(((1 S,2S)-2-(dimethylamino)cyclohexyl)amino)-2-fluorobenzenesulfonamide], for which the IC50 was 41.5 nM. The same measure, in the same setting: in the case of `CN(C)[C@H]1CCCC[C@@H]1Nc1cc(F)c(S(=O)(=O)Nc2nccs2)cc1Br` [Example 14, 5-bromo-4-[[(1S,2S)-2-(dimethylamino)cyclohexyl]amino]-2-fluoro-N-thiazol-2-yl-benzenesulfonamide] it was 21.9 nM; in that of `CN(C)[C@H]1CCCC[C@@H]1Nc1cc(F)c(S(=O)(=O)Nc2nccs2)cc1C1CC1` [Example 15, 5-cyclopropyl-4-[[(1S,2S)-2-(dimethylamino)cyclohexyl]amino]-2-fluoro-N-thiazol-2-yl-benzenesulfonamide], 26.9 nM.

Still in this experiment, the particulars now being: 100 pM [3H]compound, 18 h, room temperature; read-out: Nav1.7 LBA (Ex. 243A) IC50.
In the case of `CN(C)[C@H]1CCCC[C@@H]1Oc1cc(F)c(S(=O)(=O)Nc2nccs2)cc1C(F)(F)F` [Example 78, 4-(((1S,2S)-2-(dimethylamino)cyclohexyl)oxy)-2-fluoro-N-(thiazol-2-yl)-5-(trifluoromethyl)benzenesulfonamide formate], the IC50 came to 95.6 nM.

On to `CN(C)[C@H]1CCCC[C@@H]1Nc1cc(F)c(S(=O)(=O)Nc2ccncn2)cc1C1CC1` [Example 69, 5-cyclopropyl-4-(((1S,2S)-2-(dimethylamino)cyclohexyl)amino)-2-fluoro-N-(pyrimidin-4-yl)benzenesulfonamide formate], for which the IC50 was 296 nM. Still for that read-out and setting: in the case of `CN(C)[C@H]1CCCC[C@@H]1Nc1cc(F)c(S(=O)(=O)Nc2nccs2)cc1C1CCC1` [Example 91, 5-cyclobutyl-4-(((1S,2S)-2-(dimethylamino)cyclohexyl)amino)-2-fluoro-N-(thiazol-2-yl)benzenesulfonamide] it was 13 nM; in that of `CN(C1CNC1)[C@H]1CCCC[C@@H]1Nc1cc(F)c(S(=O)(=O)Nc2cccc(F)n2)cc1Cl` [Example 55, 4-(((1S,2S)-2-(azetidin-3-yl(methyl)amino)cyclohexyl)amino)-5-chloro-2-fluoro-N-(6-fluoropyridin-2-yl)benzenesulfonamide], 7.38 nM. Consider `CN(C)[C@H]1CCCC[C@@H]1Nc1cc(F)c(S(=O)(=O)Nc2cccc(Cl)n2)cc1Cl` [Example 85, 5-chloro-N-(6-chloropyridin-2-yl)-4-(((1S,2S)-2-(dimethylamino)cyclohexyl)amino)-2-fluorobenzenesulfonamide], for which the IC50 amounted to 252 nM. On the same count and under the same terms, in the case of `CN(C)[C@H]1CCCC[C@@H]1Nc1cc(F)c(S(=O)(=O)Nc2cscn2)cc1Cl` [Example 46, 5-chloro-4-(((1S,2S)-2-(dimethylamino)cyclohexyl)amino)-2-fluoro-N-(thiazol-4-yl)benzenesulfonamide] it was 770 nM; in that of `CC1CCCN1[C@H]1CCCC[C@@H]1Nc1cc(F)c(S(=O)(=O)Nc2nccs2)cc1Cl` (stereo partly drawn) [Example 44, 5-chloro-2-fluoro-4-(((1 S,2S)-2-(2-methylpyrrolidin-1-yl)cyclohexyl)amino)-N-(thiazol-2-yl)benzenesulfonamide], 74.4 nM; in that of `O=S(=O)(Nc1nccs1)c1cc(Cl)c(N[C@H]2CCCC[C@@H]2N2CC[C@@H](O)C2)cc1F` [Example 68, 5-chloro-2-fluoro-4-(((1S,2S)-2-((R)-3-hydroxypyrrolidin-1-yl)cyclohexyl)amino)-N-(thiazol-2-yl)benzenesulfonamide], 16.6 nM. On the same count and under the same terms, in the case of `CCN[C@H]1CCCC[C@@H]1Nc1cc(F)c(S(=O)(=O)Nc2ccncn2)cc1C1CC1` [Example 100, 5-cyclopropyl-4-(((1S,2S)-2-(ethylamino)cyclohexyl)amino)-2-fluoro-N-(pyrimidin-4-yl)benzenesulfonamide] it was 127 nM.
